According to US5001064A, “Phosphatidylinositol 4-kinase” (Washington University, priority 1988, dated 1991):
“Also recorded” adds a separate entry of the source.

Key:
Assay type in all cases: biochemical, bovine
PtdIns 4-kinase [1] = biological target: T1, PtdIns 4-kinase (Bos taurus, UniProt A6QLN5); assay: Specificity of PtdIns 4-kinase for a lipid substrate; details: for Relative activity with lipid added: lipid 0.25 mg/ml, organic extractable label, background subtracted, PtdIns (soybean) = 100; for phosphorylation of lipid by the purified enzyme: standard assay buffer with the indicated lipid
T1 construct: It constitutes the major PtdIns 4-kinase activity of bovine uteri; from tissue; host or cells: bovine uterus (acetone powder, purified over ammonium sulfate, Mono Q, S-Sepharose, Mono Q, Mono P and hydroxylapatite)
Protocol: (§1) PtdIns 4-kinase activity was assayed in 60 μl at 30° C. in 20 mM BisTris-HCl (pH 7.0), 10 mM MgCl2, 1.0% Triton X-100, 0.25 mg/ml phosphatidylinositol, and 150 μM ATP (1.25 μCi[-^32 P]ATP), unless otherwise noted. The reaction was terminated by the addition of 12 μl of cold HCl, 120 μl of cold methanol, 150 μl of chloroform, and 40 μl of H2 O. The extracted samples were centrifuged at 12,000 × g for 1 min. and the aqueous layer removed and discarded. When needed, the organic phase was washed with 40 μl of cold methanol and 40 μl of cold 1.0 N HCl, centrifuged at 12,000 × g, and the aqueous layer was removed. The organic phase was then dried under vacuum in a Savant speed-vac, resuspended in 40 μl of chloroform/methanol (2:1), and chromatographed on potassium oxalate-impregnated Silica Gel 60 thin layer chromatography plates (TLC). The solvent system used consisted of chloroform/methanol/ammonium hydroxide/water (51:39.6:3:8.4). For two-dimensional thin layer chromatography, the preceding solvent system was used for the first dimension, and chloroform/methanol/acetic acid/water (50:39:1:10) was used for the second dimension. Standards were visualized by exposing the TLC plate to iodine vapor. The reaction product, phosphatidylinositol 4-phosphate, was visualized by autoradiography, and the corresponding area of the TLC plate was scraped and quantitated by Cherenkov counting. This assay was linear with respect to both protein concentration and time. For tests utilizing [^3 H]PtdIns, the corresponding areas of the TLC plates were scraped and the silica powder was suspended in a gel of Aquasol/H2 O (4:1) before counting. All assays (except column fractions) were done in duplicate or triplicate.
The specificity of PtdIns 4-kinase for lipid substrates was also examined using standard assay buffer containing […] of the indicated lipid. After extraction the organic phase was washed three times, dried in vacuo, and the organic extractable label was quantitated. Control reactions (no lipid) established background levels which were then subtracted from the experimentally derived values (Table III). […] The sensitivity of the above technique was limited and appeared to show little or no activity with lyso-PtdIns; however, subsequent TLC of these reactions established that the enzyme would phosphorylate lyso-PtdIns about 10% as well as soybean Ptdlns. […] Except for lyso-Ptdlns, the results presented in Table III were confirmed by thin layer chromatography.

PtdIns 4-kinase [2] = biological target: T1, PtdIns 4-kinase; assay: Specificity of PtdIns 4-kinase for a nucleotide phosphoryl donor ([3H]PtdIns as substrate); details: for utilization as phosphoryl donor (words): [3H]PtdIns as substrate; for activity at 150 µM: read-out: Relative activity with nucleotide donor
Protocol: as §1, with “This assay was linear with respect to both protein concentration and time.” left out

PtdIns 4-kinase [3] = biological target: T1, PtdIns 4-kinase; assay: Effect of potential inhibitors on PtdIns 4-kinase activity; details: for effectiveness as inhibitor / relative activity at 1000 µM / Relative activity with potential inhibitor: PtdIns 0.1 mg/ml; for effectiveness as inhibitor: soluble compounds approximately 10-fold above the PtdIns concentration; for relative activity at 1000 µM: read-out: Relative activity with potential inhibitor, heading: Relative activity with potential inhibitor; for inhibition: approximately 5-fold molar excess over PtdIns (0.1 mg/ml)
Protocol: as §1, with “This assay was linear with respect to both protein concentration and time.” left out
Various PtdIns-related compounds were tested as possible inhibitors of this purified PtdIns 4-kinase. A concentration of PtdIns of 0.1 mg/ml was used in these tests to accentuate possible competitive inhibition by potential inhibitors (Table IV).

[4] = nucleotide donor 150 μM, ATP = 100

T1 sequence (A6QLN5 1-479): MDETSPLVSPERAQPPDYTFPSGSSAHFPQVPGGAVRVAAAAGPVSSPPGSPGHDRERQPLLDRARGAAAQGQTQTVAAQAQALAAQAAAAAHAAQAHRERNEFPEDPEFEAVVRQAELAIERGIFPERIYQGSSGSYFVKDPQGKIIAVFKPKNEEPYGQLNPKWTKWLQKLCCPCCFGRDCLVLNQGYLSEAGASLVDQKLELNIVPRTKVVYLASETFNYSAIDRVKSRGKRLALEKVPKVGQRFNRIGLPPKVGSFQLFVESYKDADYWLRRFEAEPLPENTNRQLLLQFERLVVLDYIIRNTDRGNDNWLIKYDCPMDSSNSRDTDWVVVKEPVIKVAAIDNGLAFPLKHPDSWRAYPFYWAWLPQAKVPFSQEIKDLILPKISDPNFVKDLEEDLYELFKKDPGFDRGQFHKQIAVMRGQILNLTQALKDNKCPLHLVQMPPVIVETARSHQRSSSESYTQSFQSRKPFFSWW

Molecule: CCCCC/C=C\C/C=C\C/C=C\C/C=C\CCCC(=O)O[C@@H](CO)COC(=O)CCCCCCCCCCCCCCCCC [1-Stearoyl-2-arachidonoyl-sn-glycerol]
- Relative activity with lipid added (PtdIns 4-kinase [1]): 0%
- phosphorylation of lipid by the purified enzyme (PtdIns 4-kinase [1]): lacked diacylglycerol kinase activity

Molecule: Nc1ncnc2c1ncn2[C@@H]1O[C@H](COP(=O)(O)OP(=O)(O)O)[C@@H](O)[C@H]1O [ADP]
- utilization as phosphoryl donor (words) (PtdIns 4-kinase [2]): No PtdIns-4-P was observed; also recorded: No PtdIns-4-P 5-kinase activity was present
- activity at 150 µM (PtdIns 4-kinase [2]; [4]): 12%

Molecule: Nc1ccn([C@@H]2O[C@H](COP(=O)(O)OP(=O)(O)OP(=O)(O)O)[C@@H](O)[C@H]2O)c(=O)n1 [CTP]
- utilization as phosphoryl donor (words) (PtdIns 4-kinase [2]): No PtdIns-4-P was observed; also recorded: No PtdIns-4-P 5-kinase activity was present
- activity at 150 µM (PtdIns 4-kinase [2]; [4]): 10%

Molecule: Nc1nc2c(ncn2[C@@H]2O[C@H](COP(=O)(O)OP(=O)(O)OP(=O)(O)O)[C@@H](O)[C@H]2O)c(=O)[nH]1 [GTP]
- utilization as phosphoryl donor (words) (PtdIns 4-kinase [2]): No PtdIns-4-P was observed; also recorded: No PtdIns-4-P 5-kinase activity was present
- activity at 150 µM (PtdIns 4-kinase [2]; [4]): 5%

Molecule: O=P(O)(OCC(O)CO)O[C@@H]1[C@H](O)[C@H](O)[C@@H](O)[C@H](O)[C@H]1O (stereo partly drawn) [Glycerophospho-D-myo-inositol]
- effectiveness as inhibitor (PtdIns 4-kinase [3]): ineffective as inhibitors
- relative activity at 1000 µM (PtdIns 4-kinase [3]; inhibitor 1.0 mM): 86%

Molecule: O=c1[nH]cnc2c1ncn2[C@@H]1O[C@H](COP(=O)(O)OP(=O)(O)OP(=O)(O)O)[C@@H](O)[C@H]1O [ITP]
- utilization as phosphoryl donor (words) (PtdIns 4-kinase [2]): No PtdIns-4-P was observed; also recorded: No PtdIns-4-P 5-kinase activity was present
- activity at 150 µM (PtdIns 4-kinase [2]; [4]): 11%

Molecule: OC1C(O)C(O)C2(CO2)C(O)C1O (stereo not drawn) [Inositol 2,2'-anhydro-2-C-hydroxymethyl]
- effectiveness as inhibitor (PtdIns 4-kinase [3]): ineffective as inhibitors
- relative activity at 1000 µM (PtdIns 4-kinase [3]; inhibitor 1.0 mM): 118%

Molecule: O=P(O)(O)O[C@H]1[C@H](O)[C@@H](O)[C@H](OP(=O)(O)O)[C@@H](O)[C@H]1O [Ins-1,4-P2]
- effectiveness as inhibitor (PtdIns 4-kinase [3]): ineffective as inhibitors
- Relative activity with potential inhibitor (PtdIns 4-kinase [3]; inhibitor 1.0 mM): 98%

Molecule: O=P(O)(O)OC1[C@H](O)[C@H](O)C(O)[C@H](O)[C@H]1O (stereo partly drawn) [Ins-1-P]
- effectiveness as inhibitor (PtdIns 4-kinase [3]): ineffective as inhibitors
- Relative activity with potential inhibitor (PtdIns 4-kinase [3]; inhibitor 1.0 mM): 89%

Molecule: CCCCCCCCCCCCCCCC(=O)OC[C@H](COP(=O)(O)O[C@H]1[C@H](O)[C@@H](O)[C@H](OP(=O)(O)O)[C@@H](OP(=O)(O)O)[C@H]1O)OC(=O)CCCCCCCCCCCCCCC [PtdIns-4,5-P2, phosphatidylinositol 4,5-diphosphate]
- Relative activity with lipid added (PtdIns 4-kinase [1]): 0%
- phosphorylation of lipid by the purified enzyme (PtdIns 4-kinase [1]): nor would it phosphorylate
- effectiveness as inhibitor (PtdIns 4-kinase [3]): Neither PtdIns-4-P or PtdIns-4,5-P2 were effective inhibitors
- inhibition (PtdIns 4-kinase [3]): 59%
- Relative activity with potential inhibitor (PtdIns 4-kinase [3]; inhibitor 0.02 mg/ml): 109%
- Relative activity with potential inhibitor (PtdIns 4-kinase [3]; inhibitor 0.10 mg/ml): 101%
- Relative activity with potential inhibitor (PtdIns 4-kinase [3]; inhibitor 0.50 mg/ml): 41%

Molecule: Cc1cn([C@H]2C[C@H](O)[C@@H](COP(=O)(O)OP(=O)(O)OP(=O)(O)O)O2)c(=O)[nH]c1=O [TTP]
- Relative activity with nucleotide donor (PtdIns 4-kinase [2]; [4]): 3

Molecule: O=c1ccn([C@@H]2O[C@H](COP(=O)(O)OP(=O)(O)OP(=O)(O)O)[C@@H](O)[C@H]2O)c(=O)[nH]1 [UTP]
- utilization as phosphoryl donor (words) (PtdIns 4-kinase [2]): A small amount of PtdIns-4-P was observed
- activity at 150 µM (PtdIns 4-kinase [2]; [4]): 18%

Molecule: Nc1ncnc2c1ncn2[C@H]1C[C@H](O)[C@@H](COP(=O)(O)OP(=O)(O)OP(=O)(O)O)O1 [dATP, 2'-deoxy-ATP]
- utilization as phosphoryl donor (words) (PtdIns 4-kinase [2]; listed as 2'-deoxy-ATP): utilized
- utilization as phosphoryl donor (words) (PtdIns 4-kinase [2]; listed as 2-deoxy-ATP): utilized; also recorded: will utilize
- activity at 150 µM (PtdIns 4-kinase [2]; [4]): 104%

Molecule: Nc1ncnc2c1ncn2[C@H]1CC[C@@H](COP(=O)(O)OP(=O)(O)OP(=O)(O)O)O1 [ddATP, 2,3-Dideoxy-ATP]
- utilization as phosphoryl donor (words) (PtdIns 4-kinase [2]; listed as 2,3-Dideoxy-ATP): partially effective
- utilization as phosphoryl donor (words) (PtdIns 4-kinase [2]; listed as 2,3-dideoxy-ATP): to a lesser degree will utilize
- activity at 150 µM (PtdIns 4-kinase [2]; [4]): 39%

Molecule: L-α-lysophosphatidylinositol [Lyso-PtdIns]
- phosphorylation relative to soybean PtdIns, by subsequent TLC (PtdIns 4-kinase [1]; TLC of the reactions): about 10%
- Relative activity with lipid added (PtdIns 4-kinase [1]): 0%

Molecule: L-α-phosphatidyl-L-serine [Phosphatidylserine]
- Relative activity with lipid added (PtdIns 4-kinase [1]): 1%
- phosphorylation of lipid by the purified enzyme (PtdIns 4-kinase [1]): no phosphorylation

Molecule: L-α-phosphatidylcholine
- Relative activity with lipid added (PtdIns 4-kinase [1]): 0%
- phosphorylation of lipid by the purified enzyme (PtdIns 4-kinase [1]): no phosphorylation

Molecule: L-α-phosphatidylethanolamine
- Relative activity with lipid added (PtdIns 4-kinase [1]): 0%
- phosphorylation of lipid by the purified enzyme (PtdIns 4-kinase [1]): no phosphorylation

Molecule: Phosphatidylinositol [PtdIns (bovine)]
- Relative activity with lipid added (PtdIns 4-kinase [1]): 110%
- phosphorylation of lipid by the purified enzyme (PtdIns 4-kinase [1]): able to phosphorylate

Molecule: Phosphatidylinositol [PtdIns (soybean)]
- Relative activity with lipid added (PtdIns 4-kinase [1]): 100%
- phosphorylation of lipid by the purified enzyme (PtdIns 4-kinase [1]): able to phosphorylate

Molecule: galactocerebrosides (mixed)
- Relative activity with lipid added (PtdIns 4-kinase [1]): 0%
- phosphorylation of lipid by the purified enzyme (PtdIns 4-kinase [1]): would not phosphorylate

Molecule: glucocerebrosides
- Relative activity with lipid added (PtdIns 4-kinase [1]): 0%
- phosphorylation of lipid by the purified enzyme (PtdIns 4-kinase [1]): would not phosphorylate

Molecule: phosphatidylinositol 4-phosphate [PtdIns-4-P]
- Relative activity with lipid added (PtdIns 4-kinase [1]): 0%
- phosphorylation of lipid by the purified enzyme (PtdIns 4-kinase [1]): lacked detectable PtdIns-4-P 5-kinase activity
- effectiveness as inhibitor (PtdIns 4-kinase [3]): Neither PtdIns-4-P or PtdIns-4,5-P2 were effective inhibitors
- inhibition (PtdIns 4-kinase [3]): 42%
- Relative activity with potential inhibitor (PtdIns 4-kinase [3]; inhibitor 0.02 mg/ml): 99%
- Relative activity with potential inhibitor (PtdIns 4-kinase [3]; inhibitor 0.10 mg/ml): 105%
- Relative activity with potential inhibitor (PtdIns 4-kinase [3]; inhibitor 0.50 mg/ml): 58%
